Experimental data reported in patent US20240294533A1, “2-(HET)ARYL-SUBSTITUTED CONDENSED HETEROCYCLE DERIVATIVES AS PEST CONTROL AGENTS” (Bayer Aktiengesellschaft, priority 2021, published 2024).

Columns and labels:
Diabrotica balteata = Diabrotica balteata spray test; type: in vivo; settings: Diabrotica balteata, 168 h; 100 g/ha (=32 μg/cavity), wheat grains, after 7 days; read-out: efficacy
From the text: Diabrotica balteata—Spray Test Solvent: 78 parts by weight of acetone • • 1.5 parts by weight of dimethylformamide Emulsifier: alkylaryl polyglycol ether An appropriate active ingredient formulation is produced by dissolving 1 part by weight of active ingredient with the stated parts by weight of solvent and making the solution up to the desired concentration with water containing an emulsifier concentration of 1000 ppm. Further test concentrations are produced by diluting the formulation with emulsifier-containing water. Pre-swollen wheat grains (Triticum aestivum) are incubated in a multiwell plate filled with agar and a little water for one day (5 seed grains per cavity). The germinated wheat grains are sprayed with an active ingredient formulation of the desired concentration. Subsequently, each cavity is infected with 10-20 beetle larvae of Diabrotica balteata. After 7 days, efficacy in % is determined. 100% means that all wheat plants have grown as in the untreated, uninfected control; 0% means that no wheat plant has grown.

Nezara viridula = Nezara viridula spray test (plants sprayed, then infected); type: in vivo; settings: 500 g/ha, barley plants, after 4 days
From the text: Nezara viridula—Spray Test Solvent: 78.0 parts by weight of acetone • • 1.5 parts by weight of dimethylformamide Emulsifier: alkylaryl polyglycol ether An appropriate active ingredient formulation is produced by dissolving 1 part by weight of active ingredient with the stated parts by weight of solvent and making the solution up to the desired concentration with water containing an emulsifier concentration of 1000 ppm. Further test concentrations are produced by diluting the formulation with emulsifier-containing water. Barley plants (Hordeum vulgare) are sprayed with an active ingredient formulation of the desired concentration and are infected with larvae of the Southern green shield bug (Nezara viridula). After 4 days, efficacy in % is determined. 100% means that all of the shield bugs have been killed; 0% means that none of the shield bugs have been killed.

Meloidogyne incognita = Meloidogyne incognita test; type: in vivo; settings: Meloidogyne incognita, 336 h, lettuce, gall formation after 14 days, read-out: nematicidal efficacy
From the text: Meloidogyne incognita Test Solvent: 125.0 parts by weight of acetone An appropriate active ingredient formulation is produced by mixing 1 part by weight of active ingredient with the stated amount of solvent and diluting the concentrate to the desired concentration with water. Vessels are filled with sand, active ingredient solution, an egg/larvae suspension of the southern root-knot nematode (Meloidogyne incognita) and lettuce seeds. The lettuce seeds germinate and the plants develop. The galls develop on the roots. After 14 days, the nematicidal efficacy in % is determined by the formation of galls. 100% means that no galls were found; 0% means that the number of galls on the treated plants corresponds to the untreated control.

[1] = log P by HPLC on reversed-phase column (C18); type: physicochemical; settings: LC-UV, neutral range, ammonium acetate/acetonitrile, read-out: log P (neutral)
Method: log P Values The log P values were determined according to EEC Directive 79/831 Annex V.A8 by HPLC (high-performance liquid chromatography) on a reversed-phase column (C18) using the following methods: ^[a] […] Calibration was carried out using straight-chain alkan-2-ones (having 3 to 16 carbon atoms) with known log P values. The values between successive alkanones are determined by linear regression.

Spodoptera frugiperda [2] = assay: Spodoptera frugiperda spray test (cotton leaves); type: in vivo; settings: 4 ppm, after 7 days
From the text: Spodoptera Frustiperda—Spray Test Solvent: 14 parts by weight of dimethylformamide Emulsifier: alkylaryl polyglycol ether An appropriate active ingredient formulation is produced by dissolving 1 part by weight of active ingredient with the stated parts by weight of solvent and making the solution up to the desired concentration with water containing an emulsifier concentration of 1000 ppm. Further test concentrations are produced by diluting the formulation with emulsifier-containing water. If the addition of ammonium salts or/and penetrants is required, these are each added in a concentration of 1000 ppm to the formulation solution. Cotton leaves (Gossypium hirsutum) are sprayed with an active ingredient formulation of the desired concentration and populated with caterpillars of the armyworm (Spodoptera frugiperda). After 7 days, the kill in % is determined. 100% means that all the caterpillars have been killed; 0% means that none of the caterpillars have been killed.

Spodoptera frugiperda [3] = assay: Spodoptera frugiperda spray test (maize leaf discs); type: in vivo; settings: Spodoptera frugiperda, foliar, 168 h, after 7 days, read-out: efficacy
From the text: Spodoptera Frusiperda—Spray Test Solvent: 78.0 parts by weight of acetone • • 1.5 parts by weight of dimethylformamide Emulsifier: alkylaryl polyglycol ether An appropriate active ingredient formulation is produced by dissolving 1 part by weight of active ingredient with the stated parts by weight of solvent and making the solution up to the desired concentration with water containing an emulsifier concentration of 1000 ppm. Further test concentrations are produced by diluting the formulation with emulsifier-containing water. Leaf discs of maize (Zea mays) are sprayed with an active ingredient formulation of the desired concentration and, after drying, populated with caterpillars of the fall armyworm (Spodoptera frugiperda). After 7 days, efficacy in % is determined. 100% means that all the caterpillars have been killed; 0% means that no caterpillar has been killed.

Myzus persicae = Myzus persicae spray test; type: in vivo; settings: 20 ppm, bell pepper plants, after 6 days
From the text: Myzus persicae—Spray Test Solvent: 14 parts by weight of dimethylformamide Emulsifier: alkylaryl polyglycol ether An appropriate active ingredient formulation is produced by dissolving 1 part by weight of active ingredient with the stated parts by weight of solvent and making the solution up to the desired concentration with water containing an emulsifier concentration of 1000 ppm. Further test concentrations are produced by diluting the formulation with emulsifier-containing water. If the addition of ammonium salts or/and penetrants is required, these are each added in a concentration of 1000 ppm to the formulation solution. Bell pepper plants (Capsicum annuum) severely infested with the green peach aphid (Myzus persicae) are treated by spraying with the active ingredient formulation in the desired concentration. After 6 days, the kill rate in % is determined. 100% means that all of the aphids have been killed; 0% means that none of the aphids have been killed.

Tetranychus urticae = Tetranychus urticae spray test, OP-resistant; type: in vivo; settings: 500 g/ha, bean leaf discs, after 6 days
From the text: Tetranychus urticae—Spray Test, OP-Resistant
Solvent: 78.0 parts by weight of acetone • • 1.5 parts by weight of dimethylformamide
Emulsifier: alkylaryl polyglycol ether
An appropriate active ingredient formulation is produced by dissolving 1 part by weight of active ingredient with the stated parts by weight of solvent and making the solution up to the desired concentration with water containing an emulsifier concentration of 1000 ppm. Further test concentrations are produced by diluting the formulation with emulsifier-containing water.
Discs of bean leaves (Phaseolus vulgaris) infested with all stages of the greenhouse red spider mite (Tetranychus urticae) are sprayed with an active ingredient formulation of the desired concentration.
After 6 days, efficacy in % is determined. 100% means that all the spider mites have been killed; 0% means that no spider mites have been killed.

| chromatographic logP [1] | SMILES | pest or weed control at 100 g/ha (Diabrotica balteata) [%] | efficacy (Nezara viridula) [%] | pest or weed control at 20 ppm (Meloidogyne incognita) [%] | efficacy (kill) (Spodoptera frugiperda [2]) [%] | pest or weed control at 100 g/ha (Spodoptera frugiperda [3]) [%] | efficacy (kill rate) (Myzus persicae) [%] | efficacy (Tetranychus urticae) [%] |
| --- | --- | --- | --- | --- | --- | --- | --- | --- |
| 3.53 | CCS(=O)(=O)c1ccc(-n2ncn(-c3ccc(F)cc3)c2=O)nc1-c1nc2cc(C(F)(F)C(F)(F)F)cnc2n1C [Example I-02, 2-[5-Ethylsulfonyl-6-[3-methyl-6-(1,1,2,2,2-pentafluoroethyl)imidazo[4,5-b]pyridin-2-yl]-2-pyridyl]-4-(4-fluorophenyl)-1,2,4-triazol-3-one] | 100 | 100 | 100 | 100 |  |  |  |
|  | CCS(=O)(=O)c1ccc(-n2ncn(-c3ccc(C#N)cc3)c2=O)nc1-c1nc2cc(C(F)(F)C(F)(F)F)nnc2n1C [Example I-06] | 100 | 100 |  |  | 100 | 95 |  |
|  | CCS(=O)(=O)c1ccc(-n2ncn(-c3ccc(C(=O)OC)cc3)c2=O)nc1-c1nc2cc(C(F)(F)C(F)(F)F)cnc2n1C [Example I-03] | 100 |  |  |  |  |  | 90 |
